Here are results for 1 compound from patent US8530513B1, “Pharmaceutical uses of diterpene excavatolide B from a coral or an analogue thereof” (National Sun Yat-Sen University, priority 2012, dated 2013).

For one assay, the system named is COX-2. In words: TPA-induced COX-2 expression in mouse skin, immunohistochemical staining. The assay is classed as in vivo. The conditions noted are these: topical for 6 h after TPA, anti-COX-2 immunostaining.
Another assay relates to MMP-9. Put plainly: TPA-induced MMP-9 protein expression in mouse skin, western blot. The class given is in vivo. The conditions noted are these: for TPA-induced MMP-9 protein expression (in words): topical after TPA, 24 h, indicated concentrations. How it is done:
Shaven abdominal skins of female C57BL/6JNarl mice were not treated or topically treated with vehicle (acetone, 200 μl/site) or TPA (10 nmol in 200 μl acetone/site) at indicated time points or treated first with TPA for 10 min, then with the indicated concentrations of BrD1 at the indicated time points. Abdominal skin samples were collected, homogenated and lysed to prepare total proteins. Protein samples were subsequently resolved by SDS-PAGE using a gradient gel. The resolved proteins were transferred to a PVDF Immobilon-P membrane (Millipore, Bedford, Calif.), and the membrane was blocked with 5% non-fat dry milk in PBST buffer (phosphate-buffered saline (PBS) containing 0.1% Tween 20) for 60 minutes at room temperature. The membranes were incubated overnight at 4° C. with commercially available antibodies (1:1000 dilutions). Loading of equal amounts of protein was assessed using mouse β-actin. The blots were rinsed three times with PBST buffer for 5 minutes. Washed blots were incubated with HRP-conjugated secondary antibody (1:100,000 dilution), then washed again three times with PBST buffer. The transferred proteins were visualized with an enhanced chemiluminescence (ECL) detection kit (Amersham Pharmacia Biotech, Buckinghamshire, UK). Quantification of bands was performed using Image J software.
(§1) Matrix metalloproteinases (MMPs) play a crucial role in many physiological and pathological processes through remodeling extracellular matrix tissues (Stamenkovic I. J Pathol 2003, 200:448-464). Matrix metalloproteinase-9 (MMP-9), a gelatinase which has a key role in inflammatory response, is activated in skin during tissue injury (Shakarjian M P, Bhatt P, Gordon M K, Chang Y C, Casbohm S L, Rudge T L, Kiser R C, Sabourin C L, Casillas R P, Ohman-Strickland P, Riley D J, Gerecke D R. J Appl Toxicol 2006, 26:239-246). In order to evaluate the anti-inflammatory effect of BrD1 on MMP-9 activation in TPA-inflamed skin, BrD1 was topically applied after TPA treatment for 24 h. […] Inhibiton of TPA-inducedMMP-9 expression by BrD1 treatment could also be readily observed at the mRNA level.
(In general: In western blotting, separated proteins are transferred to a membrane and probed.)

For the next assay, the system named is MMP-9 mRNA. Put plainly: TPA-induced MMP-9 mRNA expression in mouse skin, RT-PCR. The class given is in vivo. The conditions noted are these: for TPA-induced MMP-9 mRNA expression (in words): topical after TPA, 6 h, indicated concentrations. As for the experimental part: Shaven abdominal skins of female C57BL/6JNarl mice were untreated or topically treated with vehicle (acetone, […]) or TPA (10 nmol in […]) for 6 h or treated first with TPA for 10 min and then with the indicated concentrations of BrD1 for 6 h. Total RNA was extracted from treated abdominal skins of female mice using TRIzol reagent (Invitrogen Corp., Carlsbad, Calif.). RT-PCR reactions using AccessQuick RT-PCR system (Promega, Madison, Wis.) were carried out as described previously. The primers contained the following sequences: mouse MMP-9 sense primer 5′-[…]-3′ (SEQ ID NO. 1), and anti-sense primer 5′-[…]-3′ (SEQ ID NO. 2); mouse GAPDH sense primer 5′-[…]-3′ (SEQ ID NO. 3), and anti-sense primer 5′-[…]-3′ (SEQ ID NO. 4). Gel images were scanned and densitometry analysis of the captured image was performed using Gene Tools software (Syngene, Cambridge, UK).
as §1

A further assay has as its system TNF-α. Put plainly: LPS-induced TNF-α expression in mouse bone marrow-derived dendritic cells, ELISA. The class given is cell-based. The conditions noted are these: LPS 100 ng/ml plus BrD1 at different concentrations, 24 h. The text has this:
For mouse bone marrow-derived DCs (BMDCs), five to six-week-old female C57BL/6JNarl mice were purchased from the National Laboratory Animal Center, Taiwan and kept under SPF conditions. BMDCs were generated from bone marrow cells of C57BL/6 mice as described previously (Yin S Y, Wang W H, Wang B X, Aravindaram K, Hwang P I, Wu H M, Yang N S. BMC genomics 2010, 11:612). In brief, bone marrow was isolated from femurs and tibiae which were then flushed with RPMI-1640 medium using a syringe with a 0.45-mm needle on Day 0. Red blood cells in suspension were lysed for […] with ACK lysing buffer (150 mM NH4Cl, 1.0 mM KHCO3, 0.1 mM EDTA). Bone marrow cells were suspended at a density of 1×10^7 cells/30 ml in RPMI-1640 containing 10% FBS, 2 mM L-glutamine, 1% of nonessential amino acids, 100 U/mL penicillin and 100 μg/mL streptomycin supplemented with 20 ng/mL of mGM-CSF in 15-cm dishes at 37° C. with 5% CO2. On day 2, two-thirds of the medium was removed and 30 mL fresh medium with mGM-CSF was added to the cells. On day 5, culture plates were gently swirled and the floating and loosely adherent cells were discarded. Aliquots of 75% culture media were replenished with 20 ng/mL mGM-CSF and 20 ng/mL mIL-4. […]
(In general: In an ELISA, binding on a coated surface is turned into a signal by an enzyme label.)

For the compound `CCCC(=O)O[C@H]1C/C(C)=C\[C@@H]2OC(=O)[C@]3(C)O[C@]23[C@@H](OC(C)=O)[C@H]2[C@@H](C)[C@@H](O)C[C@H](OC(C)=O)[C@]2(C)[C@H]1OC(C)=O` [BrD1, excavatolide B], the “TPA-induced COX-2 expression” value in the assay on COX-2 is “reduced the TPA-induced COX-2 expression in the epidermis”; in the assay on COX-2 (listed as excavatolide B), “reduces the TPA-induced COX-2 expression in the epidermis”. Further, in the assay with MMP-9 (1 mg/site/mouse topical, 24 h after TPA), the “inhibition of TPA-induced MMP-9 protein expression” value is on record as not above 89%. For the same compound, the “TPA-induced MMP-9 protein expression (in words)” value with MMP-9 is given as “significantly inhibited TPA-induced MMP-9 protein expression in a dose-dependent manner”; in the assay on MMP-9 (listed as excavatolide B), “significantly inhibits TPA-induced MMP-9 protein expression in a dose-dependent manner”. The “inhibition of TPA-induced MMP-9 mRNA expression” value in the assay with MMP-9 mRNA (1 mg/site/mouse topical, 6 h after TPA) is not above 82%. Besides, the “TPA-induced MMP-9 mRNA expression (in words)” value with MMP-9 mRNA is “significantly inhibited MMP-9 mRNA expression in a dose-dependent manner”; in the assay on MMP-9 mRNA (listed as excavatolide B), “significantly inhibits MMP-9 mRNA expression in a dose-dependent manner”. Besides, the “TNF-α expression in LPS-stimulated dendritic cells” value in the assay with TNF-α is “inhibited TNF-a expression to a much lesser extent”; with TNF-α (listed as Excavatolide B), “inhibits TNF-α expression to a much lesser extent”.
